# From US6656709B1, “Methods of increasing the production of cobalamins using cob gene expression” (priority 1990, dated 2003)
# Tests used:
# [1] = system: crude extract of strain SC510 Rif^r; assay: Enzymatic chelation with cobalt in crude extract of strain SC510 Rif^r; assay type: biochemical, Pseudomonas denitrificans; conditions: 7 mM ATP, 200 μM CoCl2
# Method: A crude extract of strain SC510 Rif^r is obtained by sonication of wet cells (10 g) in 0.2 M Tris-HCl buffer pH 8.0 (20 ml), followed by removal of the cell debris by centrifugation for 1 h at 50,000×g. Proteins (1000 mg) of this extract are incubated for 1 h at 30° C. with carbon-14-labelled hydrogenobyrinic acid diamide (32 nmol; 50 μCi/μmol) in 0.2 M Tris-HCl buffer pH 8.0 (40 ml) containing 7 mM ATP and 200 μM CoCl2. The reaction is stopped by adding 1 M KH2PO4 (7.5 ml) and 0.3 M KCN (6 ml), followed by heating for 10 min at 80° C. […] To confirm that the product is indeed cobyrinic acid a,c-diamide, the product is purified by HPLC and then esterified in methanol containing 5% of sulphuric acid (18 h, 20° C.). […] It should be noted that, under similar incubation conditions in which the radioactive labelling is introduced, not into the hydrogenobyrinic acid a,c-diamide, but into the cobalt (using cobalt-57), cobalt-57-labelled cobyrinic acid a,c-diamide is biosynthesised and the same conclusions could be drawn.
# [2] = target: T1, Methanobacterium ivanovii SUMT (Methanobacterium ivanovii, UniProt P29564); assay: Catalytic properties of purified M. ivanovii SUMT; assay type: biochemical
# T1 construct: endogenous in cells; host or cells: Methanobacterium ivanovii DSM2611 (enzyme purified to homogeneity from the natural organism)
# T1 sequence (P29564 2-231 limits assumed): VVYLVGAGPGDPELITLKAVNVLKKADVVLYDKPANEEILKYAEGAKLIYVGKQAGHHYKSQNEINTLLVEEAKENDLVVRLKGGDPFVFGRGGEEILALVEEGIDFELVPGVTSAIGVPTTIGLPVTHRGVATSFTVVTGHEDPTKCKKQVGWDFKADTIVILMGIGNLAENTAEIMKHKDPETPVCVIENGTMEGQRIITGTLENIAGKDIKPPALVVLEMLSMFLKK
# Method: Methanobacterium ivanovii strain DSM2611 is cultured as described (Souillard et al., 1988). Wet cells (12 g) are obtained. The latter are resuspended in 0.1 M Tris-HCl buffer pH 7.6 (80 ml) containing 5 mM DTT and 1 mM EDTA, and sonicated for 1 h 30 min at 4° C. and then centrifuged for 1 h at 50,000 g. Free tetrapyrrole compounds are then cleared from the extract by passage through a small DEAE-Sephadex A25 column set up in the same buffer. The proteins precipitating at between 55 and 75% ammonium sulphate saturation are solubilised in a 0.1 M Tris-HCl pH 7.5, 0.5 mM DTT, 1.7 M ammonium sulphate buffer and injected onto a Phenyl-Superose HR 10/10 (Pharmacia France/SA) column eluted with a decreasing gradient (1.7 M to 0 M with respect to ammonium sulphate). The active fractions are passed through a Sephadex G-25 column equilibrated with 0.1 M Tris-HCl pH 7.5, 0.5 mM DTT, 25% glycerol buffer (buffer A), then injected onto a Mono Q HR 5/5 (Pharmacia France SA) column equilibrated with buffer A and eluted with a KCl gradient of 0 to 0.3 M; this step is repeated a second time under the same conditions. Gel permeation chromatography of the active fraction of the preceding step on Bio-Sil TSK-250 (BioRad France SA) enables a protein which is homogeneous in SDS-PAGE and in RP-HPLC (C-18 pBondapak) to be obtained. The different steps of purification, with their yield, as well as their purification factor, are described in the table below.
# As shown in this table, the total purification factor is more than 4,500. Some properties of the pure enzyme have been studied according to methods already described (Blanche et al., 1989). This enzyme does indeed have SUMT activity, i.e. it does indeed catalyse the SAM-dependant transfer of two methyl groups at C-2 and at C-7 of uro'gen III.
# The Vmax of M. ivanovii SUMT was determined. It is 1537 U/mg of proteins. This value is greater than that found for P. denitrificans SUMT, already determined under optimal conditions for the reaction (taking account of its inhibition by uro'gen III), 489 U/mg of proteins (Blanche et al., 1989).
# [3] = target: Pseudomonas denitrificans SUMT (Sinorhizobium sp, UniProt P21631); conditions: cited from earlier work
# Chain of Pseudomonas denitrificans SUMT (P21631 whole entry): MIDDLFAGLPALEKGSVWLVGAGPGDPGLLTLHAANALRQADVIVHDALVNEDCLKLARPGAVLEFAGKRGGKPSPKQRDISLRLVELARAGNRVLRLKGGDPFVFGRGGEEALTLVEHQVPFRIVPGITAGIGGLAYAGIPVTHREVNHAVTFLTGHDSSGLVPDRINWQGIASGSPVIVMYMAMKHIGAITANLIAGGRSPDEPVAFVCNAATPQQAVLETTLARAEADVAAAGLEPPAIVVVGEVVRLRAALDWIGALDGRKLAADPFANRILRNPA
Compound,substrate for enzymatic chelation with cobalt [1],inhibition by substrate ([2]; at concentrations below 20 μM),"Km ([2]; conditions of Blanche et al., 1989)",concentration above which inhibition by uro'gen III is shown [3]
C/C1=C2N=C(/C=C3\N/C(=C(/C)C4=NC(C)(C5N=C1C(C)(CCC(=O)O)C5CC(=O)O)C(C)(CC(=O)O)C4CCC(=O)O)C(C)(CC(=O)O)C3CCC(=O)O)C(C)(C)C/2CCC(=O)O (stereo not shown) [hydrogenobyrinic acid],not a substrate,,,
uroporphyrinogen III [uro'gen III],,does not show inhibition by substrate,0.052 µM,above 2 μM
